What was measured:
hTR promoter = assay: hTR-luc reporter, 293T cells; assay type: cell-based, human; conditions: luciferase 24 h after transfection
Protocol: Also, cisplatinum stimulates the promoter's activity in GSE24-2 cells more than in the control cells (FIG. 2B). […] No effect was observed of the expression of GSE24-2 on the promoter hTR^9 using cells expressing DKC or GSE24-2 (FIG. 2C).
Transfection and analysis of gene expression. The 293T cells were transfected transiently using the calcium phosphate method, as described previously^39. The total amount of DNA was maintained constant at 10 μg per million cells. The X-DC cells were transfected transiently by electroporation with 3 μg of pLNCX-GSE24-2 per million cells. The cells VA13 MEFs were transfected with […] of DNA/per million cells using lipofectamine plus (Invitrogen), following the manufacturer's instructions. The protein extracts were prepared and luciferase measured using a commercial kit (Promega). Each test was carried out in triplicate and the experiments were repeated three times. The efficiency of transfection was corrected by co-transfection of the plasmid p-CMV-Renilla.

[1] = tested on: telomerase activity of 293T cell extracts; assay: in vitro test of telomerase activity inhibition using cisplatinum (TRAP assay, telomeric probe); assay type: biochemical; conditions: 293T cell extracts and telomere probe treated in vitro with cisplatinum; rising amounts of peptide
Protocol: This description for the first time describes use of the previously described peptide GSE 24.2 in an in vitro test of telomerase activity inhibition using cisplatinum with cell extracts from 293T cells and a telomere probe treated with cisplatinum. […] Additionally, the possible bond of the peptide GSE24-2 to the telomere sequence was analysed using gel shift tests, with an oligonucleotide that forms a loop (TEL1) which reconstructs the double chain sequence of the telomere with a small 3′ hanging sequence^41.
Production and purification of the peptide GSE24-2: The DH5α cells of E. coli were transformed with the vector pGATEV GSE24-2 and the lysates were prepared as described previously^33. The fusion protein was purified with glutathione-sepharose and the purity was analysed by means of gel electrophoresis. The GSE24-2 was obtained following digestion with the protease TEV following the manufacturer's instructions. Routinely, 90% was obtained of the digested protein according to what was obtained in SDS-PAGE electrophoresis. The protein was passed twice through a Hi-Trap Ni-NTA column in order to discard polyhistidine tails, undigested protein, TEV protease, and impurities.
Telomere repeat amplification protocol (TRAP). Telomerase activity was measured using the TRAPeze^37 telomerase detection kit (Intergen, Purchase, USA) following the manufacturer's instructions. […]

| Compound | activity of the hTR promoter (hTR promoter) | telomerase activity of extracts under inhibition by cisplatinum [1] |
| --- | --- | --- |
| O=C1c2ccccc2-c2n[nH]c3cccc1c23 [SP60125] | capable of activating the activity of this promoter | – |
| peptide GSE24-2: purified peptide GSE24-2 (SEQ ID NO2), fragment of dyskerin, produced in E. coli as fusion protein and cleaved with TEV protease (GFINLDKPSNPSSHEVVAWIRRILRVEKTGHSGTLDPKVTGCLIVCIERATRLVK; listed as Homo sapiens) | – | protect the telomerase activity of the extracts |

Source: patent US20110300115A1, “USE OF INDUCTOR AGENTS GSE24.2 FOR PRODUCING PHARMACEUTICAL COMPOSITIONS FOR TREATING ILLNESSES RELATING TO CELLULAR SENESCENCE” (priority 2007, published 2011)
